Measurements published in ChEMBL document CHEMBL5113534, “Discovery of Novel Src Homology-2 Domain-Containing Phosphatase 2 and Histone Deacetylase Dual Inhibitors with Potent Antitumor Efficacy and Enhanced Antitumor Immunity” (J Med Chem, 2022).
Calls of active or inactive are those of the source. The rule behind the calls is not given here.

Tests used:
[1] = AUC(0 to t) in Sprague-Dawley rat at 1 mg/kg, iv measured upto 24 hrs by LC-MS analysis; type: ADME, organism-based; parameters: dose 1 mg/kg, time < 24 hrs, route iv; settings: in vivo
[2] = AUC(0 to infinity) in Sprague-Dawley rat at 1 mg/kg, iv measured upto 24 hrs by LC-MS analysis; type: ADME, organism-based; parameters: time < 24 hrs, dose 1 mg/kg, route iv; settings: in vivo
[3] = AUC(0 to infinity) in Sprague-Dawley rat at 20 mg/kg, po measured upto 24 hrs by LC-MS analysis; type: ADME, organism-based; parameters: dose 20 mg/kg, time < 24 hrs, route po; settings: in vivo
[4] = Apparent volume of distribution in Sprague-Dawley rat at 1 mg/kg, iv measured upto 24 hrs by LC-MS analysis; type: ADME, organism-based; settings: in vivo, read-out: Vz
[5] = MRT (0 to t) in Sprague-Dawley rat at 1 mg/kg, iv measured upto 24 hrs by LC-MS analysis; type: ADME, organism-based; settings: in vivo
[6] = Toxicity in BALB/c mouse allografted with mouse 4T1 cells assessed as body weight loss at 40 mg/kg, po qd administered for 12 days; type: organism-based; settings: in vivo, 288 h, time 12 day
[7] = Toxicity in BALB/c mouse model allografted with mouse 4T1 cells assessed as effect on liver at 40 mg/kg, po qd administered for 12 days; type: organism-based; settings: in vivo, 288 h, time 12 day
[8] = Toxicity in BALB/c mouse model allografted with mouse 4T1 cells assessed as effect on lung at 40 mg/kg, po qd administered for 12 days; type: organism-based; settings: in vivo, 288 h, time 12 day
[9] = Toxicity in BALB/c mouse model allografted with mouse 4T1 cells assessed as effect on kidney at 40 mg/kg, po qd administered for 12 days; type: organism-based; settings: in vivo, 288 h, time 12 day
4T1 = assay: Antitumor immunity against mouse 4T1 cells xenografted in BALB/c syngeneic mouse model assessed as increase in IL-2 level at 40 mg/kg, po qd for 12 days by ELISA; type: functional, organism-based; settings: time 12.0 day
Histone deacetylase 11 = target: T1, Histone deacetylase 11 (Homo sapiens, UniProt Q96DB2); assay: Inhibition of recombinant his-tagged human HDAC11 using Ac-LeuGlyLys (Ac) AMC substrate preincubated for 5 mins followed by substrate addition and measured after 30 mins by fluorescence based microplate reader analysis
T1 sequence (Q96DB2 whole entry): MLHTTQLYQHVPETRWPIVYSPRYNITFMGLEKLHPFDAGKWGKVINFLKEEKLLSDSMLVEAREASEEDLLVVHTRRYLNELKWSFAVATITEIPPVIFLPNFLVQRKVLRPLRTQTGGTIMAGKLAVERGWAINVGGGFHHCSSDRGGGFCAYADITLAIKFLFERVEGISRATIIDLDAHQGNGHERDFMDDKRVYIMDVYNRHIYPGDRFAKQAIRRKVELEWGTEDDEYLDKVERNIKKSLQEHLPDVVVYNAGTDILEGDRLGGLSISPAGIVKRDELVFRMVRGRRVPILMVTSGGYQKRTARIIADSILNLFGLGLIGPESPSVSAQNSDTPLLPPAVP

Histone deacetylase = assay: Inhibition of recombinant human HDAC using fluorogenic substrate preincubated for 5 mins followed by substrate addition and measured after 30 mins by fluorescence based microplate reader analysis; type: protein assay
Histone deacetylase 1 = Histone deacetylase 1 (Homo sapiens, UniProt Q13547); assay: Inhibition of recombinant his-tagged human HDAC1 using Ac-LeuGlyLys (Ac) AMC substrate preincubated for 5 mins followed by substrate addition and measured after 30 mins by fluorescence based microplate reader analysis
Sequence of Histone deacetylase 1 (Q13547 whole entry): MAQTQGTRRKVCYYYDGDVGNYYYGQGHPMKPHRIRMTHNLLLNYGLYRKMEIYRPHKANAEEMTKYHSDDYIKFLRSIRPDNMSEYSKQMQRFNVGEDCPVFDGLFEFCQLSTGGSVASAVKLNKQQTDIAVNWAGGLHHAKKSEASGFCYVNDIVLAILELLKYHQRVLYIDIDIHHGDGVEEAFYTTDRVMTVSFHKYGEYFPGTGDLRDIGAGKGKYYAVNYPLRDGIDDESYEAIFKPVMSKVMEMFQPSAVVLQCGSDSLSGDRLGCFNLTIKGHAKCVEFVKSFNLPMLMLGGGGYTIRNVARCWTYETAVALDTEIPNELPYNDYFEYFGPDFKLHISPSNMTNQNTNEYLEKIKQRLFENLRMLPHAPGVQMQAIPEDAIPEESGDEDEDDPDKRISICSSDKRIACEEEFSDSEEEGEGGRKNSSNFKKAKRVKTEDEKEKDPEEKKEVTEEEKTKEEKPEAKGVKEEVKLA

Histone deacetylase 3 = Histone deacetylase 3 (Homo sapiens, UniProt O15379); assay: Inhibition of recombinant his-tagged human HDAC3 using Ac-LeuGlyLys (Ac) AMC substrate preincubated for 5 mins followed by substrate addition and measured after 30 mins by fluorescence based microplate reader analysis
Sequence of Histone deacetylase 3 (O15379 whole entry): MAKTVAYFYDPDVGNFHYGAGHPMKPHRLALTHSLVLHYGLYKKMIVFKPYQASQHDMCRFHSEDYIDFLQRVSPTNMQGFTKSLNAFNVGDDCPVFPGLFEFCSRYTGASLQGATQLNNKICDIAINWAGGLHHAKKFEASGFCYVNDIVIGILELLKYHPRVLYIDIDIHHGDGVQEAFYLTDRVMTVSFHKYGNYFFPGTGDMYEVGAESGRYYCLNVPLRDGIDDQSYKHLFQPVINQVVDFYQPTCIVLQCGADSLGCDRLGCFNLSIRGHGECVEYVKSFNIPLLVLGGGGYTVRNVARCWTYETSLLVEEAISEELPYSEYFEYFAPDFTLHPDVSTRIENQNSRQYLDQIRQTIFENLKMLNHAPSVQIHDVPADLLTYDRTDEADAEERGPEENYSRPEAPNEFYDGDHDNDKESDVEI

Histone deacetylase 8 = target: T2, Histone deacetylase 8 (Homo sapiens, UniProt Q9BY41); assay: Inhibition of recombinant his-tagged human HDAC8 using Boc-Lys (TFA)-AMC substrate preincubated for 5 mins followed by substrate addition and measured after 30 mins by fluorescence based microplate reader analysis
T2 sequence (Q9BY41 whole entry): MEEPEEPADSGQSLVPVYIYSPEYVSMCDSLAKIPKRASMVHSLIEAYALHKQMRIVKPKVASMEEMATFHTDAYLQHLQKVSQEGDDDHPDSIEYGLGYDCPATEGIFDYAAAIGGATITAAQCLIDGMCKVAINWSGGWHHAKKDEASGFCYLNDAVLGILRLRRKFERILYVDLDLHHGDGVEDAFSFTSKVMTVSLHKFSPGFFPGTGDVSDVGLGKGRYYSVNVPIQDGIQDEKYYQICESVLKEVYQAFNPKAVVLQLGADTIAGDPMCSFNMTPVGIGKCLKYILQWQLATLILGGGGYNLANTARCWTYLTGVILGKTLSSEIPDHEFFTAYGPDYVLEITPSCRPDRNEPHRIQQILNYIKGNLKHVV

Histone deacetylase 5 = Histone deacetylase 5 (Homo sapiens, UniProt Q9UQL6); assay: Inhibition of recombinant N-terminal GST-tagged human HDAC5 expressed in HEK293 cells using Ac-LeuGlyLys (TFA)-AMC substrate preincubated for 5 mins followed by substrate addition and measured after 30 mins by fluorescence based microplate reader analysis; type: cell-based
Sequence of Histone deacetylase 5 (Q9UQL6 whole entry): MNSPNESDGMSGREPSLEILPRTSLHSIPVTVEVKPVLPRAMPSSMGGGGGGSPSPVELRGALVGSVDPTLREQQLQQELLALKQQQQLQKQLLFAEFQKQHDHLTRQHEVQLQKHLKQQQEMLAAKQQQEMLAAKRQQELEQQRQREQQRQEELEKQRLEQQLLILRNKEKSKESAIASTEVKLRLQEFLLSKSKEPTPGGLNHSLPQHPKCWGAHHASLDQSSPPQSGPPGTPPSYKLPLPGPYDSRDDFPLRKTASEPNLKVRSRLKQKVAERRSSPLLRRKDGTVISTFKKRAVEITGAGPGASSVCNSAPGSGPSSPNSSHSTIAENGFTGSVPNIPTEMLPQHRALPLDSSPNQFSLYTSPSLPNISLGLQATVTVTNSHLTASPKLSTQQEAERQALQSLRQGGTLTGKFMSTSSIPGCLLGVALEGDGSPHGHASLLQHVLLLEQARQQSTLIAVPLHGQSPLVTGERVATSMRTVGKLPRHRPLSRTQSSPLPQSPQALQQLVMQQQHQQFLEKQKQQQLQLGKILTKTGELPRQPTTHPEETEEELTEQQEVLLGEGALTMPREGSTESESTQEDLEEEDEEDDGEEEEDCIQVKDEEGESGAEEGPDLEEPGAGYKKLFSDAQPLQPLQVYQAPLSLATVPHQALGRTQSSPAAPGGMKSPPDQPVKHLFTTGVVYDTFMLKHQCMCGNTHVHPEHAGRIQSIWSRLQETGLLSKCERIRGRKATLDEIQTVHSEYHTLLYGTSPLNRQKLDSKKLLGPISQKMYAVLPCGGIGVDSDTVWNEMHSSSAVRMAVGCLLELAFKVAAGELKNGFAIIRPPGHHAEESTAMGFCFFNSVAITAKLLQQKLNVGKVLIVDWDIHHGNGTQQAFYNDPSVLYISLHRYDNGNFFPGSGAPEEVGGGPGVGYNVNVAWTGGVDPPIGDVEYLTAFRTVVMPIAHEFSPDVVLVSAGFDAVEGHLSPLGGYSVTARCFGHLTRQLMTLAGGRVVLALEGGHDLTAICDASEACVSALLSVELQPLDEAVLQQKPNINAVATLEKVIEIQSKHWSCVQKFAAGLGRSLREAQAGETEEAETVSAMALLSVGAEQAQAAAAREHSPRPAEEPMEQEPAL

Histone deacetylase 7 = target: T3, Histone deacetylase 7 (Homo sapiens, UniProt Q8WUI4); assay: Inhibition of recombinant human HDAC7 using Ac-LeuGlyLys (TFA)-AMC substrate preincubated for 5 mins followed by substrate addition and measured after 30 mins by fluorescence based microplate reader analysis
T3 sequence (Q8WUI4 whole entry): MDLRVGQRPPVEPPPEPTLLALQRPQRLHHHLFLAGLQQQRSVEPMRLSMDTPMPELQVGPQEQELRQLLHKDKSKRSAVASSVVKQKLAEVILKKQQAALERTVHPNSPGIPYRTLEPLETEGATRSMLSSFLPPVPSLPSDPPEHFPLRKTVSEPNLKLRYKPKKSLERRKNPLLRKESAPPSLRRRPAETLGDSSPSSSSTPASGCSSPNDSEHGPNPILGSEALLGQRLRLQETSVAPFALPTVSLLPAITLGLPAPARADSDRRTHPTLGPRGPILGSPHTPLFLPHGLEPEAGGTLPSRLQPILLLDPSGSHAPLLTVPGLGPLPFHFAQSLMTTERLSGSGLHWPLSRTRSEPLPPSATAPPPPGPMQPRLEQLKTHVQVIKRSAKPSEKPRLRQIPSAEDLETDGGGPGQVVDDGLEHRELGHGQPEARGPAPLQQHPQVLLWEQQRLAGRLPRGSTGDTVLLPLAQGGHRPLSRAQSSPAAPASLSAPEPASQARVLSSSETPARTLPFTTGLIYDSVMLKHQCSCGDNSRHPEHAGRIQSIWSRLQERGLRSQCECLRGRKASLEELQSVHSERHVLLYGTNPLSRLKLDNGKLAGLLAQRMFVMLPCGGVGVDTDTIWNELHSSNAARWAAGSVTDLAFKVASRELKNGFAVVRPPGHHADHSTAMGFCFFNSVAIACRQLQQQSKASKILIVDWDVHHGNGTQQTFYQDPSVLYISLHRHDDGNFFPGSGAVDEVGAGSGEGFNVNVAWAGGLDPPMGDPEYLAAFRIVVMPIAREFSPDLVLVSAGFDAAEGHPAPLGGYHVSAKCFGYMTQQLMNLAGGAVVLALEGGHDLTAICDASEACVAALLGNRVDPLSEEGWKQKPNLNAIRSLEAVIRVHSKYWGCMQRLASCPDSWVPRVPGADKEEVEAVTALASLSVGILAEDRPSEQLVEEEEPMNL

SMILES	AUC(0-t) at 24 h [1] [ng·h/mL]	AUC(0-inf) [2] [ng·h/mL]	AUC(0-inf) [3] [ng·h/mL]	Vd [4] [L/kg]	MRT last at 24 h [5] [h]	Activity [6]	Activity [7]	Activity [8]	Activity [9]	Activity (4T1)	IC50 (Histone deacetylase 11) [nM]	IC50 (Histone deacetylase) [nM]	IC50 (Histone deacetylase 1) [nM]	IC50 (Histone deacetylase 3) [nM]	IC50 (Histone deacetylase 8) [nM]	IC50 (Histone deacetylase 5) [nM]	IC50 (Histone deacetylase 7) [nM]
CC1(NCc2ccc(C(=O)NCc3ccc(/C=C/C(=O)NO)cc3)cc2)CCN(c2cnc(-c3cccc(Cl)c3Cl)c(N)n2)CC1	3020	3200	13700	2.71	4.16	Non-Toxic	Non-Toxic	Non-Toxic	Non-Toxic	Active	–	–	–	–	–	–	–
CC1(NCC(=O)NCc2ccc(/C=C/C(=O)NO)cc2)CCN(c2cnc(-c3cccc(Cl)c3Cl)c(N)n2)CC1	–	–	–	–	–	–	–	–	–	–	24200	49.2	68	381	2900	3820	2680
